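These data come from cells grown in 96-well plates and exposed to compound for 48 hours at five concentrations. GI50 is the concentration that inhibits growth by half.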 Activity calls are given as the source filed them. Rule as the data show it: active = GI50 up to about 1.1 µM and inactive = higher.
Columns and labels:
Test in all cases: inhibition of tumour cell growth, NCI panel, 48 h
A498 = system: A498
CAKI-1 = system: CAKI-1
CCRF-CEM = system: CCRF-CEM
HCC 2998 = system: HCC 2998
HCT-116 = system: HCT-116
HCT-15 = system: HCT-15
LOX IMVI = system: LOX IMVI
MCF7 = system: MCF7
MOLT-4 = system: MOLT-4
Malme-3M = system: Malme-3M
NCI-H522 = system: NCI-H522
NCI/ADR-RES = system: NCI/ADR-RES
OVCAR-3 = system: OVCAR-3
SF-295 = system: SF-295
SK-OV-3 = system: SK-OV-3
SNB-19 = system: SNB-19
SW-620 = system: SW-620
TK-10 = system: TK-10
UACC-62 = system: UACC-62
UO-31 = system: UO-31

| Structure (SMILES) | GI50 (A498) | GI50 (CAKI-1) | GI50 (CCRF-CEM) | GI50 (HCC 2998) | GI50 (HCT-116) | GI50 (HCT-15) [µM] | GI50 (LOX IMVI) | GI50 (MCF7) | GI50 (MOLT-4) | GI50 (Malme-3M) | GI50 (NCI-H522) | GI50 (NCI/ADR-RES) | GI50 (OVCAR-3) | GI50 (SF-295) | GI50 (SK-OV-3) | GI50 (SNB-19) | GI50 (SW-620) | GI50 (TK-10) | GI50 (UACC-62) | GI50 (UO-31) |
| --- | --- | --- | --- | --- | --- | --- | --- | --- | --- | --- | --- | --- | --- | --- | --- | --- | --- | --- | --- | --- |
| CC(=O)O[C@H]1C[C@H]2C(=S)Nc3ccccc3C(=S)N2C1 | > 100 µM (inactive) | > 100 µM (inactive) | > 100 µM (inactive) | > 100 µM (inactive) | > 100 µM (inactive) | > 100 | > 100 µM (inactive) | > 100 µM (inactive) | > 100 µM (inactive) | > 100 µM (inactive) | > 100 µM (inactive) | > 100 µM (inactive) | > 100 µM (inactive) | > 100 µM (inactive) | > 100 µM (inactive) | > 100 µM (inactive) | > 100 µM (inactive) | > 100 µM (inactive) | > 100 µM (inactive) | > 100 µM (inactive) |
| COC1=CC2(CC(OC)=C1OC)OC21COc2ccccc2C1=O (stereo not given) | > 100 µM (inactive) | > 100 µM (inactive) | 32.3 µM (inactive) | > 100 µM (inactive) | 50.5 µM (inactive) | 65.8 | 50.5 µM (inactive) | 55.7 µM (inactive) | 23 µM (inactive) | > 100 µM (inactive) | 75 µM (inactive) | 85.7 µM (inactive) | > 100 µM (inactive) | 61.2 µM (inactive) | > 100 µM (inactive) | 65.2 µM (inactive) | > 100 µM (inactive) | > 100 µM (inactive) | 60.1 µM (inactive) | 5.16 µM (inactive) |
| COc1ccc2[nH]c3c([N+](=O)[O-])ccc(Cl)c3c(=O)c2c1 | 91.2 µM (inactive) | 23.2 µM (inactive) | 2.12 µM (inactive) | 28.9 µM (inactive) | 13.7 µM (inactive) | 14.2 | 7.71 µM (inactive) | 25.1 µM (inactive) | 3.52 µM (inactive) | 19.6 µM (inactive) | 19 µM (inactive) | 25.6 µM (inactive) | 16.8 µM (inactive) | 38 µM (inactive) | > 63.1 µM (inactive) | 51.4 µM (inactive) | 7.67 µM (inactive) | 20.2 µM (inactive) | 18 µM (inactive) | 17.3 µM (inactive) |
| COC(=O)C(N)CCCC(N)C(=O)NC(C)C(=O)NC(CCC(=O)NCCNCCNc1c2ccccc2nc2cccc([N+](=O)[O-])c12)C(N)=O (stereo not given) | 17.4 µM (inactive) | 27.9 µM (inactive) | 7.59 µM (inactive) | 8.34 µM (inactive) | 4.63 µM (inactive) | 14.2 | 14.7 µM (inactive) | 3.89 µM (inactive) | 3.5 µM (inactive) | 11.3 µM (inactive) | 1.65 µM (inactive) | 80.5 µM (inactive) | 12.3 µM (inactive) | 27.8 µM (inactive) | 28 µM (inactive) | 18.5 µM (inactive) | 9.86 µM (inactive) | 16.2 µM (inactive) | 8.09 µM (inactive) | 21.9 µM (inactive) |
| O=C(CC(=O)c1ccccc1NC1=Cc2ccccc2C(=O)C1=O)C(=O)NC1=C(Cl)C(=O)c2ccccc2C1=O | 14.7 µM (inactive) | 8.28 µM (inactive) | 2.03 µM (inactive) | 9.84 µM (inactive) | 2.31 µM (inactive) | 1.67 | 1.13 µM (inactive) | 0.804 µM (active) | 1.24 µM (inactive) | 1.22 µM (inactive) | 1.91 µM (inactive) | 3 µM (inactive) | 1.51 µM (inactive) | 3.87 µM (inactive) | 23.3 µM (inactive) | 5.56 µM (inactive) | 2.43 µM (inactive) | 22.3 µM (inactive) | 1.85 µM (inactive) | 6.89 µM (inactive) |
| C/C(Cl)=N/OC(=O)Nc1ccc(F)c([N+](=O)[O-])c1 | 19.5 µM (inactive) | 1.79 µM (inactive) | 2.13 µM (inactive) | 37.3 µM (inactive) | 3.89 µM (inactive) | 5.94 | 6.68 µM (inactive) | 15.2 µM (inactive) | 1.78 µM (inactive) | 2.65 µM (inactive) | 1.81 µM (inactive) | 30.3 µM (inactive) | 19.2 µM (inactive) | 31.1 µM (inactive) | 20.9 µM (inactive) | 20.1 µM (inactive) | 3.71 µM (inactive) | 6.1 µM (inactive) | 21.3 µM (inactive) | 8.05 µM (inactive) |
| O=C(OCc1ccccc1[N+](=O)[O-])N1c2ccccc2[C@@]23O[C@]24CCC[C@H]3C#C/C=C\C#C[C@H]14 | > 100 µM (inactive) | 7.36 µM (inactive) | 4.21 µM (inactive) | 41.3 µM (inactive) | 41.5 µM (inactive) | 17 | 6.73 µM (inactive) | 0.875 µM (active) | 1.46 µM (inactive) | 8.38 µM (inactive) | 78 µM (inactive) | 31.3 µM (inactive) | > 100 µM (inactive) | 7.01 µM (inactive) | > 100 µM (inactive) | > 100 µM (inactive) | 9.16 µM (inactive) | > 100 µM (inactive) | 22.7 µM (inactive) | 21 µM (inactive) |
